US9090617B1, “Agonists of Src homology-2 containing protein tyrosine phosphatase-1 and treatment methods using the same” (National Taiwan University, priority 2011, dated 2015)

These molecules were tested on p-STAT3, cyclin D1, survivin, Mc1-1 (assay: Western blot of STAT3-related proteins in HCC cells). Settings: PLC5 cells, 5 and 10 μM, 24 h.
Type: cell-based
Procedure: Cells were treated with various compounds at 5 and 10 μM for 24 h. Cell lysates were analyzed by western blot.
HCC cells treated with SC-43 (10 μM for 24 h) were collected with RIPA lysis buffer. Antibodies for immunoblotting such as cyclin D1 was purchased from Santa Cruz Biotechnology. Other antibodies such as survivin, phospho-STAT3 (Tyr705), STAT3, Mc1-1, SOCS1, and SOCS3 were from Cell Signaling.
`O=[N+]([O-])c1cc(C(F)(F)F)ccc1S(=O)(=O)Nc1ccc(Oc2ccnc3ccccc23)cc1` [Compound 12, 2-Nitro-N-(4-(quinolin-4-yloxy)phenyl)-4-(trifluoromethyl)benzenesulfonamide] was tested, and the “cyclin D1 and survivin level” value was “had no effect on either protein”.

Each molecule was assayed on HCC cells (assay: Apoptosis analysis by flow cytometry (sub-G1)). Settings: HCC cells, 24 h.
Type: cell-based
Procedure: Apoptotic cells were measured by flow cytometry (sub-G1). After treatment with various compounds, cells were trypsinized, collected by centrifugation and resuspended in PBS. After centrifugation, the cells were washed in PBS and resuspended in […] (PI) staining solution. Specimens were incubated in the dark for 30 min at 37° C. and then analyzed with an EPICS Profile II flow cytometer (Coulter Corp., Hialeah, Fla.). All experiments were performed in triplicate
Collected cells were fixed in 75% Ethanol and stained with 20 ug/ml Propidium Iodide (PI). Sub-G1 analysis was performed by flow-cytometry. […] Points, mean; bars, SD (n=6).
For `O=S(=O)(Nc1cccc(Oc2ccn3cc(-c4ccccc4)nc3c2)c1)c1cccc(C(F)(F)F)c1` [SC-37, N-(3-(2-phenylimidazo[1,2-a]pyridin-7-yloxy)phenyl)-3-(trifluoromethyl)benzenesulfonamide], the “apoptosis (sub-G1)” value was “has no activity in inducing cancer cell apoptosis”.
`N#Cc1ccc(Oc2cccc(NC(=O)C3(C(=O)Nc4cccc(Oc5ccc(C#N)cc5)c4)CC3)c2)cc1` [SC-67, N,N′-bis(3-(4-cyanophenoxyl)phenyl)cyclopropane-1,1-dicarboxamide] was tested, and the “apoptosis (sub-G1)” value was “has no activity in inducing cancer cells (PLC5) apoptosis”.

The molecules below were run on HCC cells (assay: cells). Settings: not given.
Excerpt: Points, mean; bars, SD (n=6).
Points, mean; bars, SD ([…]). […] The N-SH2 domain is in orange, the C-SH2 domain is in marine, the PTP domain is in hot pink, and the linkers between them are in gray. […] ELISA, enzyme-linked immunosorbent assay.
In the case of `N#Cc1ccc(Oc2cc(NC(=O)Nc3ccc(Cl)c(C(F)(F)F)c3)ccc2F)cc1` [SC-111, 1-(4-chloro-3-(trifluoromethyl)phenyl)-3-(3-(4-cyanophenoxy)-4-fluorophenyl)urea], the “viability of HCC cells / cytotoxicity” value is reported as “exhibits antitumor effect in vitro”.

Each molecule was assayed on PLC5 cells (assay: MTT assay for cell growth inhibition in PLC5 cells). Settings: not given.
Type: cell-based
Procedure: These compounds were analyzed by MTT assay for cell growth inhibition in the PLC5 cells.
Next, we changed the pyridine to a quinoline ring and amide linker to generate compounds 12-25. These compounds were also analyzed by MTT assay for cell growth inhibition in the PLC5 cells.
With `CNC(=O)c1cc(Oc2ccc(NS(=O)(=O)c3ccccc3)cc2)ccn1` [Compound 2, N-Methyl-4-(4-(phenylsulfonamido)phenoxy)picolinamide] the IC50 was over 40 µM.
In the case of `CNC(=O)c1cc(Oc2ccc(NS(=O)(=O)c3ccc([N+](=O)[O-])cc3)cc2)ccn1` [Compound 3, N-Methyl-4-(4-(4-nitrophenylsulfonamido)phenoxy)picolinamide], the IC50 is reported as over 40 µM.
For `CNC(=O)c1cc(Oc2ccc(NS(=O)(=O)c3ccc(F)cc3)cc2)ccn1` [Compound 4, 4-(4-(4-Fluorophenylsulfonamido)phenoxy)-N-methylpicolinamide], the IC50 was over 40 µM.
With `CNC(=O)c1cc(Oc2ccc(NS(=O)(=O)c3ccc(C(C)(C)C)cc3)cc2)ccn1` [Compound 5, 4-(4-(4-tert-Butylphenylsulfonamido)phenoxy)-N-methylpicolinamide] the IC50 was over 40 µM.
For `CNC(=O)c1cc(Oc2ccc(NS(=O)(=O)c3ccc4ccccc4c3)cc2)ccn1` [Compound 6, N-Methyl-4-(4-(naphthalene-2-sulfonamido)phenoxy)picolinamide], the IC50 was over 40 µM.
`CNC(=O)c1cc(Oc2ccc(NS(=O)(=O)c3ccc(C(F)(F)F)cc3Br)cc2)ccn1` [Compound 7, 4-(4-(2-Bromo-4-(trifluoromethyl)phenylsulfonamido)phenoxy)-N-methylpicolinamide] showed an IC50 of over 40 µM.
For `CNC(=O)c1cc(Oc2ccc(NS(=O)(=O)c3ccccc3[N+](=O)[O-])cc2)ccn1` [Compound 8, N-Methyl-4-(4-(2-nitrophenylsulfonamido)phenoxy)picolinamide], the IC50 was over 40 µM.
Work on `CNC(=O)c1cc(Oc2ccc(NC(=O)c3cc(C(F)(F)F)cc(C(F)(F)F)c3)cc2)ccn1` [Compound 9, 4-(4-(3,5-Bis(trifluoromethyl)benzamido)phenoxy)-N-methylpicolinamide] yielded an IC50 of over 40 µM.
For `CNC(=O)c1cc(Oc2ccc(NC(=O)c3cc(F)ccc3C(F)(F)F)cc2)ccn1` [Compound 10, 4-(4-(5-Fluoro-2-(trifluoromethyl)benzamido)phenoxy)-N-methylpicolinamide], the IC50 was over 40 µM.
With `CNC(=O)c1cc(Oc2ccc(NC(=O)c3ccc(C(F)(F)F)cc3)cc2)ccn1` [Compound 11, N-Methyl-4-(4-(4-(trifluoromethyl)benzamido)phenoxy)picolinamide] the IC50 was over 40 µM.
In the case of `O=[N+]([O-])c1cc(C(F)(F)F)ccc1S(=O)(=O)Nc1ccc(Oc2ccnc3ccccc23)cc1` [Compound 12, 2-Nitro-N-(4-(quinolin-4-yloxy)phenyl)-4-(trifluoromethyl)benzenesulfonamide], the IC50 is reported as over 40 µM.
`O=[N+]([O-])c1cc(C(F)(F)F)ccc1S(=O)(=O)Nc1ccc(Oc2ccnc3c([N+](=O)[O-])cccc23)cc1` [Compound 13, 2-Nitro-N-(4-(8-nitroquinolin-4-yloxy)phenyl)-4-(trifluoromethyl)benzenesulfonamide] was tested, and the IC50 was over 40 µM.
With `O=S(=O)(Nc1ccc(Oc2ccnc3ccccc23)cc1)c1ccc(C(F)(F)F)cc1Br` [Compound 14, 2-Bromo-N-(4-(quinolin-4-yloxy)phenyl)-4-(trifluoromethyl)benzenesulfonamide] the IC50 was over 40 µM.
With `O=[N+]([O-])c1cccc2c(Oc3ccc(NS(=O)(=O)c4ccc(C(F)(F)F)cc4Br)cc3)ccnc12` [Compound 15, 2-Bromo-N-(4-(8-nitroquinolin-4-yloxy)phenyl)-4-(trifluoromethyl)benzenesulfonamide] the IC50 was over 40 µM.
`O=C(Nc1ccc(Oc2ccnc3ccccc23)cc1)c1cc(C(F)(F)F)cc(C(F)(F)F)c1` [Compound 16, N-(4-(Quinolin-4-yloxy)phenyl)-3,5-bis(trifluoromethyl)benzamide] was tested, and the IC50 was 16 µM.
For `O=C(Nc1ccc(Oc2ccnc3c([N+](=O)[O-])cccc23)cc1)c1cc(C(F)(F)F)cc(C(F)(F)F)c1` [Compound 17, N-(4-(8-Nitroquinolin-4-yloxy)phenyl)-3,5-bis(trifluoromethyl)benzamide], the IC50 was over 40 µM.
Work on `O=C(Nc1ccc(Oc2ccnc3ccccc23)cc1)c1cc(C(F)(F)F)ccc1F` [Compound 18, 2-Fluoro-N-(4-(quinolin-4-yloxy)phenyl)-5-(trifluoromethyl)benzamide] yielded an IC50 of 21.1 µM.
With `O=C(Nc1ccc(Oc2ccnc3c([N+](=O)[O-])cccc23)cc1)c1cc(C(F)(F)F)ccc1F` [Compound 19, 2-Fluoro-N-(4-(8-nitroquinolin-4-yloxy)phenyl)-5-(trifluoromethyl)benzamide] the IC50 was over 40 µM.
Molecule `Cc1cc(NC(=O)c2cc(C(F)(F)F)cc(C(F)(F)F)c2)ccc1Oc1ccnc2c([N+](=O)[O-])cccc12` [Compound 20, N-(3-Methyl-4-(8-nitroquinolin-4-yloxy)phenyl)-3,5-bis(trifluoromethyl)benzamide] has an IC50 of over 40 µM.
Molecule `Cc1cc(NC(=O)c2cc(C(F)(F)F)cc(C(F)(F)F)c2)ccc1Oc1ccnc2c(N)cccc12` [Compound 21, N-(4-(8-Aminoquinolin-4-yloxy)-3-methylphenyl)-3,5-bis(trifluoromethyl)benzamide] has an IC50 of 25.4 µM.
`CC(=O)Nc1cccc2c(Oc3ccc(NC(=O)c4cc(C(F)(F)F)cc(C(F)(F)F)c4)cc3C)ccnc12` [Compound 22, N-(4-(8-Acetamidoquinolin-4-yloxy)-3-methylphenyl)-3,5-bis(trifluoromethyl)benzamide] was tested, and the IC50 was over 40 µM.
`O=C(Nc1cccc(Oc2ccnc3c([N+](=O)[O-])cccc23)c1)c1cc(C(F)(F)F)cc(C(F)(F)F)c1` [Compound 23, N-(3-(8-Nitroquinolin-4-yloxy)phenyl)-3,5-bis(trifluoromethyl)benzamide] gave an IC50 of over 40 µM.
For `Nc1cccc2c(Oc3cccc(NC(=O)c4cc(C(F)(F)F)cc(C(F)(F)F)c4)c3)ccnc12` [Compound 24, N-(3-(8-Aminoquinolin-4-yloxy)phenyl)-3,5-bis(trifluoromethyl)benzamide], the IC50 was 19 µM.
Work on `CC(=O)Nc1cccc2c(Oc3cccc(NC(=O)c4cc(C(F)(F)F)cc(C(F)(F)F)c4)c3)ccnc12` [Compound 25, N-(3-(8-Acetamidoquinolin-4-yloxy)phenyl)-3,5-bis(trifluoromethyl)benzamide] yielded an IC50 of 10.8 µM.
